# In paper PMC5218480 (PLoS ONE, 2017):
# System: MV-4-11 cells
# Assay: Gene expression microarray analysis (Affymetrix PrimeView) and GSEA
# Assay type: cell-based, human
# Parameters: RFU PODN (11730768_x_at) / Fold change /veh PODN (11730768_x_at) / RFU LINC00158 (11744669_a_at) / Fold change /veh LINC00158 (11744669_a_at) / RFU DUSP10 (11751237_a_at) / Fold change /veh DUSP10 (11751237_a_at) / RFU ID3 (11757404_x_at) / Fold change /veh ID3 (11757404_x_at) / RFU PLEKHG5 (11737974_s_at) / Fold change /veh PLEKHG5 (11737974_s_at) / RFU LRRC4B (11730491_at) / Fold change /veh LRRC4B (11730491_at) / RFU GIMAP4 (11747438_a_at) / Fold change /veh GIMAP4 (11747438_a_at) / RFU KRT8 (11758183_x_at) / Fold change /veh KRT8 (11758183_x_at) / RFU CNN1 (11734310_a_at) / Fold change /veh CNN1 (11734310_a_at) / RFU VPS37D (11726825_at) / Fold change /veh VPS37D (11726825_at) / RFU C10orf10 (11716522_x_at) / Fold change /veh C10orf10 (11716522_x_at) / RFU KIR2DL2 /// KIR2DL4 /// KIR2DL5A /// KIR2DL5B /// KIR2DS1 /// KIR2DS2 /// KIR2DS3 /// KIR2DS4 /// KIR3DL3 /// KIR3DL3 /// KIR3DS1 (11738374_at) / Fold change /veh KIR2DL2 /// KIR2DL4 /// KIR2DL5A /// KIR2DL5B /// KIR2DS1 /// KIR2DS2 /// KIR2DS3 /// KIR2DS4 /// KIR3DL3 /// KIR3DL3 /// KIR3DS1 (11738374_at) / RFU C1QL1 (11718748_at) / Fold change /veh C1QL1 (11718748_at) / RFU TMPRSS4 (11747572_a_at) / Fold change /veh TMPRSS4 (11747572_a_at) / RFU HAMP (11756126_x_at) / Fold change /veh HAMP (11756126_x_at) / RFU RNFT2 (11725882_a_at) / Fold change /veh RNFT2 (11725882_a_at) / RFU NR4A2 (11747474_a_at) / Fold change /veh NR4A2 (11747474_a_at) / RFU ABCC12 (11746883_a_at) / Fold change /veh ABCC12 (11746883_a_at) / RFU TMEM136 (11760407_x_at) / Fold change /veh TMEM136 (11760407_x_at) / RFU CLDN22 /// WWC2 (11732394_at) / Fold change /veh CLDN22 /// WWC2 (11732394_at) / RFU HLA-DPB1 (11760878_x_at) / Fold change /veh HLA-DPB1 (11760878_x_at) / RFU SPINT1 (11716480_a_at) / Fold change /veh SPINT1 (11716480_a_at) / RFU GAP43 (11754022_s_at) / Fold change /veh GAP43 (11754022_s_at) / RFU A4GNT (11735810_at) / Fold change /veh A4GNT (11735810_at) / RFU PRB3 (11715151_x_at) / Fold change /veh PRB3 (11715151_x_at) / RFU TUBB4B (11761932_at) / Fold change /veh TUBB4B (11761932_at) / RFU CAPN14 (11732068_a_at) / Fold change /veh CAPN14 (11732068_a_at) / RFU TMCC2 (11721928_a_at) / Fold change /veh TMCC2 (11721928_a_at) / RFU IRGQ (11745062_a_at) / Fold change /veh IRGQ (11745062_a_at) / RFU FAM174B (11720279_a_at) / Fold change /veh FAM174B (11720279_a_at) / RFU TMPRSS4 (11748680_a_at) / Fold change /veh TMPRSS4 (11748680_a_at) / RFU FAM212B (11763350_a_at) / Fold change /veh FAM212B (11763350_a_at) / RFU PLEKHG5 (11743358_a_at) / Fold change /veh PLEKHG5 (11743358_a_at) / RFU ZSCAN30 (11745921_a_at) / Fold change /veh ZSCAN30 (11745921_a_at) / RFU CMKLR1 (11741424_a_at) / Fold change /veh CMKLR1 (11741424_a_at) / RFU LOC101060620 /// MAPK8IP1 (11723275_at) / Fold change /veh LOC101060620 /// MAPK8IP1 (11723275_at) / RFU SPTSSB (11747773_x_at) / Fold change /veh SPTSSB (11747773_x_at) / RFU PRSS12 (11739890_at) / Fold change /veh PRSS12 (11739890_at) / RFU BIN1 (11741810_x_at) / Fold change /veh BIN1 (11741810_x_at) / RFU WNT11 (11732464_a_at) / Fold change /veh WNT11 (11732464_a_at) / RFU C10orf10 (11716521_a_at) / Fold change /veh C10orf10 (11716521_a_at) / RFU C5orf56 (11738089_at) / Fold change /veh C5orf56 (11738089_at) / RFU CYB561 (11721691_x_at) / Fold change /veh CYB561 (11721691_x_at) / RFU ANKRD19P (11752326_a_at) / Fold change /veh ANKRD19P (11752326_a_at) / RFU OR2T12 /// OR2T33 /// OR2T8 (11738714_s_at) / Fold change /veh OR2T12 /// OR2T33 /// OR2T8 (11738714_s_at) / RFU VCAN (11748164_a_at) / Fold change /veh VCAN (11748164_a_at) / RFU JSRP1 (11732532_at) / Fold change /veh JSRP1 (11732532_at) / RFU KRTAP10-11 (11738290_x_at) / Fold change /veh KRTAP10-11 (11738290_x_at) / RFU MYO3A (11730013_a_at) / Fold change /veh MYO3A (11730013_a_at) / RFU EBF3 (11725865_a_at) / Fold change /veh EBF3 (11725865_a_at) / RFU CAMK2N1 (11719241_x_at) / Fold change /veh CAMK2N1 (11719241_x_at) / RFU C5orf56 (11738088_a_at) / Fold change /veh C5orf56 (11738088_a_at) / RFU OLFML3 (11715873_a_at) / Fold change /veh OLFML3 (11715873_a_at) / RFU LOC100653217 /// NTM (11731650_a_at) / Fold change /veh LOC100653217 /// NTM (11731650_a_at) / RFU MAPK11 (11762145_a_at) / Fold change /veh MAPK11 (11762145_a_at) / RFU FIZ1 (11724087_x_at) / Fold change /veh FIZ1 (11724087_x_at) / RFU OASL (11726364_x_at) / Fold change /veh OASL (11726364_x_at) / RFU SOX15 (11748057_x_at) / Fold change /veh SOX15 (11748057_x_at) / RFU CD79A (11719716_a_at) / Fold change /veh CD79A (11719716_a_at) / RFU HIST1H1D (11736915_at) / Fold change /veh HIST1H1D (11736915_at) / RFU CASKIN2 (11723855_a_at) / Fold change /veh CASKIN2 (11723855_a_at) / RFU LOC730098 (11760151_x_at) / Fold change /veh LOC730098 (11760151_x_at) / RFU OR4N2 (11742367_at) / Fold change /veh OR4N2 (11742367_at) / RFU PRRT2 (11749266_a_at) / Fold change /veh PRRT2 (11749266_a_at) / RFU SNX32 (11753110_a_at) / Fold change /veh SNX32 (11753110_a_at) / RFU CDHR5 (11726645_a_at) / Fold change /veh CDHR5 (11726645_a_at) / RFU RCAN1 (11760418_a_at) / Fold change /veh RCAN1 (11760418_a_at) / RFU FAM167A (11723789_a_at) / Fold change /veh FAM167A (11723789_a_at) / RFU FAM26E (11764081_at) / Fold change /veh FAM26E (11764081_at) / RFU ISYNA1 (11749810_s_at) / Fold change /veh ISYNA1 (11749810_s_at) / RFU ACY1 (11761880_at) / Fold change /veh ACY1 (11761880_at) / RFU 11764098_at / Fold change /veh 11764098_at / RFU SAMD14 (11745864_x_at) / Fold change /veh SAMD14 (11745864_x_at) / RFU NPB (11741838_a_at) / Fold change /veh NPB (11741838_a_at) / RFU TMPRSS6 (11731388_a_at) / Fold change /veh TMPRSS6 (11731388_a_at) / RFU KRTAP10-2 (11738614_at) / Fold change /veh KRTAP10-2 (11738614_at) / RFU ARHGAP8 /// PRR5-ARHGAP8 (11727945_x_at) / Fold change /veh ARHGAP8 /// PRR5-ARHGAP8 (11727945_x_at) / RFU KRTAP5-7 /// NADSYN1 (11734609_at) / Fold change /veh KRTAP5-7 /// NADSYN1 (11734609_at) / RFU RASL12 (11751679_a_at) / Fold change /veh RASL12 (11751679_a_at) / RFU CDKN2B (11736163_a_at) / Fold change /veh CDKN2B (11736163_a_at) / RFU PRF1 (11729649_at) / Fold change /veh PRF1 (11729649_at) / RFU, ZNF638 /// ZNF638-IT1 / Fold change vs veh, ZNF638 /// ZNF638-IT1 / RFU, PANK3 / Fold change vs veh, PANK3 / RFU, SH3YL1 / Fold change vs veh, SH3YL1 / RFU, ZEB2 / Fold change vs veh, ZEB2 / RFU, NRIP1 / Fold change vs veh, NRIP1 / RFU, PTTG1IP / Fold change vs veh, PTTG1IP / RFU, CAPN2 / Fold change vs veh, CAPN2 / RFU, MED14 / Fold change vs veh, MED14 / RFU, SNORA58 / Fold change vs veh, SNORA58 / RFU, C1orf63 / Fold change vs veh, C1orf63 / RFU, LRRFIP1 / Fold change vs veh, LRRFIP1 / RFU, NDUFAF7 / Fold change vs veh, NDUFAF7 / RFU, SLC12A2 / Fold change vs veh, SLC12A2 / RFU, IBTK / Fold change vs veh, IBTK / RFU, ESF1 / Fold change vs veh, ESF1 / Fold change vs veh, TMEM50B / RFU, TAOK1 / Fold change vs veh, TAOK1 / RFU, ACBD3 / Fold change vs veh, ACBD3 / RFU, TMA16 / Fold change vs veh, TMA16 / RFU, RWDD3 / Fold change vs veh, RWDD3 / RFU, BCAT1 / Fold change vs veh, BCAT1 / RFU, EDEM3 / Fold change vs veh, EDEM3 / RFU, TMEM33 / Fold change vs veh, TMEM33 / RFU, WDR75 / Fold change vs veh, WDR75 / RFU, AHCTF1 / Fold change vs veh, AHCTF1 / RFU, TFRC / Fold change vs veh, TFRC / RFU, ZDHHC17 / Fold change vs veh, ZDHHC17 / RFU, NOM1 / Fold change vs veh, NOM1 / RFU, ARL8B / Fold change vs veh, ARL8B / RFU, ZBTB11 / Fold change vs veh, ZBTB11 / RFU, TAMM41 / Fold change vs veh, TAMM41 / RFU, KIAA1704 /// LOC100996395 / Fold change vs veh, KIAA1704 /// LOC100996395 / RFU, ING1 / Fold change vs veh, ING1 / RFU, TRMT61B / Fold change vs veh, TRMT61B / RFU, FUBP3 / Fold change vs veh, FUBP3 / RFU, TP53 / Fold change vs veh, TP53 / RFU, TNKS2 / Fold change vs veh, TNKS2 / RFU, ZFP14 / Fold change vs veh, ZFP14 / RFU, ACTR2 / Fold change vs veh, ACTR2 / RFU, PPP3R1 / Fold change vs veh, PPP3R1 / RFU, PIK3R1 / Fold change vs veh, PIK3R1 / RFU, HNRNPA1 / Fold change vs veh, HNRNPA1 / RFU, RNF170 / Fold change vs veh, RNF170 / RFU, ZNF28 / Fold change vs veh, ZNF28 / RFU, RNGTT / Fold change vs veh, RNGTT / RFU, OGT / Fold change vs veh, OGT / RFU, BRD1 / Fold change vs veh, BRD1 / RFU, MARS / Fold change vs veh, MARS / RFU, ZNF655 / Fold change vs veh, ZNF655 / RFU, FAHD1 / Fold change vs veh, FAHD1 / RFU, BDP1 / Fold change vs veh, BDP1 / RFU, LRRCC1 / Fold change vs veh, LRRCC1 / RFU, ARID1A / Fold change vs veh, ARID1A / RFU, ZNF146 / Fold change vs veh, ZNF146 / RFU, ZNF330 / Fold change vs veh, ZNF330 / RFU, GPN3 / Fold change vs veh, GPN3 / RFU, C9orf123 / Fold change vs veh, C9orf123 / RFU, N4BP2L2 / Fold change vs veh, N4BP2L2 / RFU, ARFIP1 / Fold change vs veh, ARFIP1 / RFU, FAM179B / Fold change vs veh, FAM179B / RFU, BCL10 / Fold change vs veh, BCL10 / RFU, UHRF1BP1L / Fold change vs veh, UHRF1BP1L / RFU, BET1 / Fold change vs veh, BET1 / RFU, CNOT2 / Fold change vs veh, CNOT2 / RFU, ZNF268 / Fold change vs veh, ZNF268 / Fold change vs veh, ZNF507 / RFU, DGCR2 / Fold change vs veh, DGCR2 / RFU, WDSUB1 / Fold change vs veh, WDSUB1 / Fold change vs veh, HSP90B1 /// MIR3652 / RFU, ADSS / Fold change vs veh, ADSS / RFU, GK / Fold change vs veh, GK / RFU, ZNF148 / Fold change vs veh, ZNF148 / RFU, TAF9 / Fold change vs veh, TAF9 / RFU, SLC1A5 / Fold change vs veh, SLC1A5 / RFU, SLMO2 / Fold change vs veh, SLMO2 / RFU, ABCC4 / Fold change vs veh, ABCC4 / RFU, LOC101060439 /// RAP1B / Fold change vs veh, LOC101060439 /// RAP1B / RFU, RFX7 / Fold change vs veh, RFX7 / RFU, GTPBP10 / Fold change vs veh, GTPBP10 / RFU, CNEP1R1 / Fold change vs veh, CNEP1R1 / RFU, BIVM-ERCC5 /// ERCC5 / Fold change vs veh, BIVM-ERCC5 /// ERCC5 / RFU, ILF3 / Fold change vs veh, ILF3 / RFU 11762660_at / Fold change /veh 11762660_at / RFU VCAN (11757783_s_at) / Fold change /veh VCAN (11757783_s_at) / RFU DDX43 (11728927_at) / Fold change /veh DDX43 (11728927_at) / RFU KRT8 (11758188_x_at) / Fold change /veh KRT8 (11758188_x_at) / RFU NKD1 (11759106_at) / Fold change /veh NKD1 (11759106_at) / RFU SRD5A1 (11742802_a_at) / Fold change /veh SRD5A1 (11742802_a_at) / RFU TPSAB1 /// TPSB2 (11721975_s_at) / Fold change /veh TPSAB1 /// TPSB2 (11721975_s_at) / RFU GSTM3 (11746129_a_at) / Fold change /veh GSTM3 (11746129_a_at) / RFU IL23R (11737362_x_at) / Fold change /veh IL23R (11737362_x_at) / RFU TMEM51 (11727254_a_at) / Fold change /veh TMEM51 (11727254_a_at) / RFU PIWIL2 (11732686_x_at) / Fold change /veh PIWIL2 (11732686_x_at) / RFU ORM1 (11744905_x_at) / Fold change /veh ORM1 (11744905_x_at) / RFU CCDC152 (11743942_at) / Fold change /veh CCDC152 (11743942_at) / RFU ECM1 (11717891_a_at) / Fold change /veh ECM1 (11717891_a_at) / RFU IL23R (11748794_a_at) / Fold change /veh IL23R (11748794_a_at) / RFU TNFAIP8L3 (11732012_x_at) / Fold change /veh TNFAIP8L3 (11732012_x_at) / RFU MBOAT4 (11741988_at) / Fold change /veh MBOAT4 (11741988_at) / RFU 11764193_at / Fold change /veh 11764193_at / RFU TMEM53 (11763286_at) / Fold change /veh TMEM53 (11763286_at) / RFU MAGEB2 (11727129_at) / Fold change /veh MAGEB2 (11727129_at) / RFU TMEM200A (11744735_a_at) / Fold change /veh TMEM200A (11744735_a_at) / RFU CCDC152 (11751479_a_at) / Fold change /veh CCDC152 (11751479_a_at) / RFU FAM211A (11726209_a_at) / Fold change /veh FAM211A (11726209_a_at) / RFU RGS16 (11746705_a_at) / Fold change /veh RGS16 (11746705_a_at) / RFU VCAN (11755009_s_at) / Fold change /veh VCAN (11755009_s_at) / RFU RHOB (11743442_s_at) / Fold change /veh RHOB (11743442_s_at) / RFU RGS16 (11720943_a_at) / Fold change /veh RGS16 (11720943_a_at) / RFU RGS16 (11720944_at) / Fold change /veh RGS16 (11720944_at) / RFU, VPS4B / Fold change vs veh, VPS4B / RFU, CREB1 / Fold change vs veh, CREB1 / RFU, DNAJC13 / Fold change vs veh, DNAJC13 / RFU, GNAQ / Fold change vs veh, GNAQ / RFU, CDK5R1 / Fold change vs veh, CDK5R1 / RFU, ZRANB3 / Fold change vs veh, ZRANB3 / RFU, CUL4A / Fold change vs veh, CUL4A / RFU, CCNY / Fold change vs veh, CCNY / RFU, UFL1 / Fold change vs veh, UFL1 / RFU, COG3 / Fold change vs veh, COG3 / RFU, DIAPH2 / Fold change vs veh, DIAPH2 / RFU, SKA2 / Fold change vs veh, SKA2 / RFU, AFF3 / Fold change vs veh, AFF3 / RFU, LMF1 / Fold change vs veh, LMF1 / RFU, IPO11 / Fold change vs veh, IPO11 / RFU, DFFB / Fold change vs veh, DFFB / RFU, FOXP1 / Fold change vs veh, FOXP1 / RFU, CARD8 / Fold change vs veh, CARD8 / RFU, STRN3 / Fold change vs veh, STRN3 / RFU, ADK / Fold change vs veh, ADK / RFU, RASSF2 / Fold change vs veh, RASSF2 / RFU, WIPF1 / Fold change vs veh, WIPF1 / RFU, LARP1B / Fold change vs veh, LARP1B / RFU, RASA1 / Fold change vs veh, RASA1 / RFU, RB1 / Fold change vs veh, RB1 / RFU, PPFIA1 / Fold change vs veh, PPFIA1 / RFU, MAT2A / Fold change vs veh, MAT2A / RFU, CCT5 / Fold change vs veh, CCT5 / RFU, WDR92 / Fold change vs veh, WDR92 / RFU, CUX1 / Fold change vs veh, CUX1 / RFU, TTC7A / Fold change vs veh, TTC7A / RFU, TMEM135 / Fold change vs veh, TMEM135 / RFU, DEPTOR / Fold change vs veh, DEPTOR / RFU, CPM / Fold change vs veh, CPM / RFU, DNAJB6 / Fold change vs veh, DNAJB6 / RFU, CACNA2D3 / Fold change vs veh, CACNA2D3 / RFU, DTX4 / Fold change vs veh, DTX4 / RFU, TFCP2 / Fold change vs veh, TFCP2 / RFU, GMCL1 /// GMCL1P1 / Fold change vs veh, GMCL1 /// GMCL1P1 / RFU, AEBP2 / Fold change vs veh, AEBP2 / RFU, SNHG1 /// SNORD22 /// SNORD25 /// SNORD26 /// SNORD27 /// SNORD28 /// SNORD29 /// SNORD31 / Fold change vs veh, SNHG1 /// SNORD22 /// SNORD25 /// SNORD26 /// SNORD27 /// SNORD28 /// SNORD29 /// SNORD31 / Fold change (Aza/veh), C12orf56 (ProbeSet 11735607_a_at) / Fold change (ACY-1035/veh), C12orf56 (ProbeSet 11735607_a_at) / Fold change (Aza/veh), FGFR1OP (ProbeSet 11751329_s_at) / Fold change (ACY-1035/veh), FGFR1OP (ProbeSet 11751329_s_at) / Fold change (Aza/veh), VPS36 (ProbeSet 11739960_a_at) / Fold change (ACY-1035/veh), VPS36 (ProbeSet 11739960_a_at) / RFU SYPL1 (11715823_x_at) / Fold change /veh SYPL1 (11715823_x_at) / RFU IGFBP7 (11715501_s_at) / Fold change /veh IGFBP7 (11715501_s_at) / RFU REEP3 (11722064_at) / Fold change /veh REEP3 (11722064_at) / RFU IGLL1 (11728026_x_at) / Fold change /veh IGLL1 (11728026_x_at): dose or concentration left out as unconfirmed
# Conditions: ProbeSet 11759095_at; LIST D
structure (smiles),measurement,value
Nc1ncn([C@@H]2O[C@H](CO)[C@@H](O)[C@H]2O)c(=O)n1 [azacitidine],"Fold change vs veh, GNAQ",0.81
